We go through 15 compounds from PubChem BioAssay (NCI).

Each structure is given as a SMILES string.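 Five compound concentrations were applied to cells in 96-well plates for 48 hours; endpoints were derived by simple linear interpolation of the resulting dose-response curve. At the TGI there is no net growth.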

Some test systems named below: DU-145 prostate; UO-31 renal; 786-0 renal; UACC-257 melanoma; CAKI-1 renal; UACC-62 melanoma; HCC-2998 colon; SW-620 colon; IGROV1 ovarian; SF-268 CNS; MALME-3M melanoma; BT-549 breast; HT29 colon; NCI-H23 lung; A549 NSCLC; HOP-92 NSCLC; T-47D breast.
Common to all, as to test: NCI-60 cell line screen, 48 h

In the case of `CCCCC1(O)CC2CC1C(C)C2(C)C` (centres undefined), the TGI in the assay with DU-145 prostate, with UO-31 renal, in the assay with 786-0 renal, in the assay with UACC-257 melanoma, in the assay with CAKI-1 renal and with UACC-62 melanoma was greater than 100 µM in each case. In addition, the TGI with HCC-2998 colon, in the assay with SW-620 colon, in the assay with IGROV1 ovarian, in the assay on SF-268 CNS, in the assay on MALME-3M melanoma and in the assay on BT-549 breast was greater than 100 µM in each case. Also, the TGI in the assay with HT29 colon, with NCI-H23 lung and in the assay on A549 NSCLC was greater than 100 µM in each case.
With `O=C1CC2CC(CC3(CO3)C2)C1F` (centres undefined), the TGI in the assay with DU-145 prostate, with UO-31 renal, in the assay on 786-0 renal, in the assay on UACC-257 melanoma, in the assay on CAKI-1 renal and in the assay with UACC-62 melanoma was greater than 100 µM throughout. The TGI in the assay with HCC-2998 colon, in the assay with HOP-92 NSCLC, with IGROV1 ovarian, with SF-268 CNS, with T-47D breast and in the assay on MALME-3M melanoma was greater than 100 µM throughout. Besides, the TGI with HT29 colon, with NCI-H23 lung and in the assay with A549 NSCLC was greater than 100 µM each time.
Consider `C=CC1(c2ccc3ccccc3c2)OCC(CC)O1` (centres undefined), for which the TGI in the assay with DU-145 prostate is greater than 100 µM; with UO-31 renal, greater than 100 µM; in the assay on 786-0 renal, greater than 100 µM; in the assay on UACC-257 melanoma, greater than 100 µM; in the assay on UACC-62 melanoma it was 88.3 µM; with HCC-2998 colon, greater than 100 µM. Also, the TGI with SW-620 colon is greater than 100 µM; in the assay with HOP-92 NSCLC, 75.2 µM; in the assay on IGROV1 ovarian it was greater than 100 µM; with SF-268 CNS, greater than 100 µM; in the assay on T-47D breast it was greater than 100 µM; in the assay with MALME-3M melanoma, 93.2 µM. Moreover, the TGI in the assay with HT29 colon was 91.2 µM; with NCI-H23 lung, 96.2 µM; in the assay on A549 NSCLC it was greater than 100 µM.
In the case of `O=c1[nH]c(=O)n(CCOc2ccc(Cl)cc2)cc1Nc1ccccc1`, the TGI with DU-145 prostate, with UO-31 renal, in the assay with 786-0 renal, in the assay on UACC-257 melanoma, in the assay with CAKI-1 renal and in the assay on UACC-62 melanoma was greater than 100 µM throughout. For the same compound, the TGI in the assay on HCC-2998 colon, in the assay on SW-620 colon, with HOP-92 NSCLC, in the assay on IGROV1 ovarian, in the assay with SF-268 CNS and in the assay on HT29 colon was greater than 100 µM each time. In addition, the TGI with NCI-H23 lung and in the assay with A549 NSCLC was greater than 100 µM throughout.
As for `C#CCOCn1cc(C)c(=O)[nH]c1=O`, the TGI with DU-145 prostate, in the assay with UO-31 renal, with 786-0 renal, with UACC-257 melanoma, in the assay on CAKI-1 renal and in the assay with UACC-62 melanoma was greater than 100 µM throughout. Further, the TGI with HCC-2998 colon, with SW-620 colon, in the assay on IGROV1 ovarian, in the assay with SF-268 CNS, in the assay with T-47D breast and in the assay with MALME-3M melanoma was greater than 100 µM throughout. Moreover, the TGI with HT29 colon, in the assay with NCI-H23 lung and in the assay with A549 NSCLC was greater than 100 µM in each case.
Take `CC(C)(C)[Si](C)(C)OCC1OC(n2ccc(=O)[nH]c2=O)C(O[Si](C)(C)C(C)(C)C)[C@]12O[C@@H]2CO` (some centres undefined): the TGI with DU-145 prostate was determined as 38.1 µM; in the assay with UO-31 renal it was 21.7 µM; with 786-0 renal, 44.6 µM; with UACC-257 melanoma it was 39.7 µM; in the assay with CAKI-1 renal it was 38.7 µM; in the assay with UACC-62 melanoma, 36.8 µM. Further, the TGI is 81.7 µM in the assay with HCC-2998 colon; 58.7 µM in the assay with SW-620 colon; 32.8 µM in the assay with HOP-92 NSCLC; 33.1 µM with IGROV1 ovarian; 42.5 µM with SF-268 CNS; 19.4 µM in the assay with BT-549 breast. For the same compound, the figures for the TGI in the assay with HT29 colon, in the assay on NCI-H23 lung and with A549 NSCLC were 23.8 µM, 30.2 µM and 26.6 µM, respectively.
On to `O=c1[nH]c2c(c(=O)[nH]1)C(c1ccc([N+](=O)[O-])cc1)c1c([nH]c(=O)[nH]c1=O)O2`, for which the TGI in the assay with DU-145 prostate, with UO-31 renal, in the assay with 786-0 renal, in the assay on UACC-257 melanoma, with CAKI-1 renal and in the assay on UACC-62 melanoma was greater than 100 µM throughout. For the same compound, the TGI in the assay with SW-620 colon, in the assay on IGROV1 ovarian, with SF-268 CNS, in the assay with BT-549 breast, in the assay with HT29 colon and in the assay with NCI-H23 lung was greater than 100 µM in each case. In the assay on A549 NSCLC, this compound registered a TGI greater than 100 µM.
For `CC1=C(C(=O)CC(=O)C(=O)Nc2ccc(C)c(C)c2)Sc2ccccc2N1`, the TGI in the assay with UO-31 renal, in the assay with 786-0 renal, in the assay on UACC-257 melanoma, in the assay with CAKI-1 renal, with UACC-62 melanoma and in the assay on HCC-2998 colon was greater than 100 µM each time. For the same compound, the TGI in the assay on SW-620 colon, in the assay on HOP-92 NSCLC, with IGROV1 ovarian, in the assay with SF-268 CNS, in the assay on MALME-3M melanoma and in the assay on HT29 colon was greater than 100 µM in each case. In addition, the TGI in the assay with NCI-H23 lung and in the assay on A549 NSCLC was greater than 100 µM throughout.
For `Cc1ccc(Sc2ccccc2N)cc1`, the TGI is 31.5 µM with UO-31 renal; greater than 100 µM in the assay with 786-0 renal; greater than 100 µM in the assay on UACC-257 melanoma; 67 µM in the assay with CAKI-1 renal; greater than 100 µM in the assay on UACC-62 melanoma; greater than 100 µM with HCC-2998 colon. The TGI with SW-620 colon is greater than 100 µM; in the assay with HOP-92 NSCLC, 54.7 µM; in the assay with IGROV1 ovarian, greater than 100 µM; in the assay on SF-268 CNS, greater than 100 µM; with MALME-3M melanoma it was greater than 100 µM; with HT29 colon, greater than 100 µM. For the same compound, the results for the TGI in the assay on NCI-H23 lung and in the assay with A549 NSCLC were 93.3 µM and greater than 100 µM, respectively.
Regarding `O=C(Cc1nc2ccc([N+](=O)[O-])cc2[nH]c1=O)C(=O)Nc1ccccc1[N+](=O)[O-]`, the TGI with UO-31 renal, in the assay on 786-0 renal, with UACC-257 melanoma, in the assay on CAKI-1 renal, with UACC-62 melanoma and in the assay on HCC-2998 colon was greater than 100 µM in each case. The TGI with SW-620 colon, with HOP-92 NSCLC, with IGROV1 ovarian, in the assay with SF-268 CNS, in the assay on MALME-3M melanoma and with HT29 colon was greater than 100 µM each time. For the same compound, the TGI in the assay with NCI-H23 lung and with A549 NSCLC was greater than 100 µM in each case.
Turning to `COc1ccc(/C=C2\CCC(CCN3CCOCC3)C2=O)cc1` (centres undefined), the TGI in the assay with UO-31 renal, in the assay with 786-0 renal, in the assay with UACC-257 melanoma, in the assay on CAKI-1 renal, in the assay on UACC-62 melanoma and with HCC-2998 colon was greater than 100 µM each time. Moreover, the TGI in the assay on SW-620 colon, in the assay with HOP-92 NSCLC, with IGROV1 ovarian, in the assay on SF-268 CNS, in the assay on MALME-3M melanoma and in the assay with HT29 colon was greater than 100 µM throughout. For the same compound, the TGI in the assay on NCI-H23 lung and in the assay on A549 NSCLC was greater than 100 µM each time.
Take `CCOC(=O)C1(N)CC1`: the TGI in the assay with DU-145 prostate, in the assay on UO-31 renal, in the assay on 786-0 renal, in the assay on UACC-257 melanoma, in the assay on CAKI-1 renal and with HCC-2998 colon was greater than 100 µM throughout. For the same compound, the TGI with SW-620 colon, in the assay with HOP-92 NSCLC, with IGROV1 ovarian, with SF-268 CNS, with T-47D breast and with MALME-3M melanoma was greater than 100 µM throughout. In addition, the TGI in the assay on HT29 colon, in the assay on NCI-H23 lung and in the assay with A549 NSCLC was greater than 100 µM in each case.
In the case of `CN1CC2=C(NC(=S)NC2c2ccccc2Cl)/C(=C/c2ccccc2Cl)C1` (centres undefined), the TGI in the assay with DU-145 prostate was greater than 100 µM; in the assay with UO-31 renal, 93.1 µM; in the assay on 786-0 renal, greater than 100 µM; in the assay on UACC-257 melanoma it was greater than 100 µM; in the assay on CAKI-1 renal, greater than 100 µM; with UACC-62 melanoma, greater than 100 µM. The TGI with HCC-2998 colon is greater than 100 µM; in the assay on SW-620 colon it was greater than 100 µM; in the assay with HOP-92 NSCLC, 99.1 µM; in the assay on IGROV1 ovarian, greater than 100 µM; in the assay with SF-268 CNS, greater than 100 µM; in the assay on T-47D breast it was greater than 100 µM. The TGI is 74.4 µM in the assay with MALME-3M melanoma, greater than 100 µM in the assay with HT29 colon, greater than 100 µM with NCI-H23 lung and greater than 100 µM in the assay with A549 NSCLC.
Consider `CS(=O)(=O)O[C@H]1[C@H](O)c2ccccc2[C@@H]1N=[N+]=[N-]`, for which the TGI in the assay on DU-145 prostate, in the assay on UO-31 renal, in the assay on 786-0 renal, with UACC-257 melanoma, in the assay with CAKI-1 renal and with UACC-62 melanoma was greater than 100 µM in each case. Besides, the TGI in the assay on HCC-2998 colon, in the assay on SW-620 colon, in the assay with HOP-92 NSCLC, in the assay on IGROV1 ovarian, in the assay on MALME-3M melanoma and in the assay with BT-549 breast was greater than 100 µM in each case. In addition, the TGI in the assay on HT29 colon, in the assay with NCI-H23 lung and in the assay on A549 NSCLC was greater than 100 µM in each case.
Turning to `O=C1[C@@H](O)[C@@H]2CCCC[C@@]23CCCN13`, the TGI with DU-145 prostate, with UO-31 renal, in the assay with 786-0 renal, in the assay with UACC-257 melanoma, in the assay with CAKI-1 renal and in the assay with UACC-62 melanoma was greater than 100 µM in each case. Moreover, the TGI in the assay with HCC-2998 colon, with HOP-92 NSCLC, in the assay with IGROV1 ovarian, in the assay on SF-268 CNS, in the assay with T-47D breast and in the assay on MALME-3M melanoma was greater than 100 µM throughout. In addition, the TGI in the assay with HT29 colon, in the assay with NCI-H23 lung and in the assay with A549 NSCLC was greater than 100 µM each time.
